# Results taken from US12590057B2, “Crystalline complexes” (Theracryf PLC, priority 2020, dated 2026).
# Marks after values point to notes of the source that are not given here.
# Columns and labels:
# Type in all cases: physicochemical
# [1] = Variable humidity XRPD (VH-XRPD) at 25° C.
# From the text: Non-ambient conditions: XRPD diffractograms were collected on a PANalytical Empyrean diffractometer using Cu Kα radiation (45 kV, 40 mA) in reflection geometry. The instrument is fitted with an Anton Paar CHC plus^+ stage fitted with graphite/Kapton windows and equipped with air cooling coupled with a proUmid MHG32 Modular Humidity Generator or a low vacuum pump system using an Edwards RV3 pump. A programmable divergence slit (in automatic mode), with a 10 mm fixed incident beam mask, Ni filter and 0.04 rad Soller slits were used on the incident beam. A PIXcel^3D detector, placed on the diffracted beam, was fitted with a programmable anti-scatter slit (in automatic mode) and 0.04 rad Soller slits. The software used for data collection was X'Pert Data Collector and the data analysed and presented using Diffrac Plus EVA or Highscore Plus. For variable humidity (VH-XRPD) experiments the samples were prepared and analysed in an Anton Paar chromed low-profile sample holder with silicon wafer insert. The measurement parameters are as per the standard screening data collection method (detailed above). For all variable humidity XRPD experiments, a pattern was recorded every hour. […] The Form 1 sample was loaded into the VH chamber, which was set to 40% RH and 25° C. and then the RH was decreased in 10% decrements to 10% RH followed by increasing the RH in 10% increments to 90% RH, while maintaining the temperature at 25° C. […] The sample then quickly transitioned from Form 1 at 80% RH to Form 2 at 90% RH. A variable humidity (VH) XRPD experiment was performed to examine how Form 3 exists under different RH conditions. […] The sample was stable as Form 2 for 8 hours at 80% RH. At 90% RH Form 2 existed for 2 hours before the sample deliquesced in the humidity chamber.
# [2] = Kinetic solubility in biorelevant media; details: for Kinetic solubility, Mean conc: 37° C.
# Procedure: A small-scale kinetic solubility study was carried out at a nominal concentration of 200-400 mg/ml to ensure solid material remained at the end of the experiment for XRPD analysis. Approximately 100 mg of sample—Form 1 (batch ref L17-0004-S-8002) or Form 3 (Example 5.4.1 (batch ref. 491PAL22; A-19-0132)) was weighed into a 1 ml vial and 250 μl of 0.1 M HCl was added to the vial for the 15 and 30 minute timepoints and 500 μl of a 1:1 mixture of 0.1 M HCl and FaSSIF was added to the vial for the 60 and 180 minute timepoints, The vial was agitated and maintained at 37° C.
# The study was carried out in duplicate. Each sample was centrifuged to remove suspended solids. An aliquot of the supernatant was transferred to a second vial for further centrifugation and then transferred to an LC vial, diluted with an appropriate solvent and analysed by HPLC for parent compound. The residual solids were analysed by XRPD.
# [3] = KF water content of stability samples; details: for KF water content: Duma bottles without desiccant
# Procedure: The water content of each sample was measured on a Metrohm 874 Oven Sample Processor at 150° C. with 851 Titrano Coulometer using Hydranal Coulomat AG oven reagent and nitrogen purge. Weighed solid samples were introduced into a sealed sample vial. Approximately 10 mg of sample was used per titration and duplicate determinations were made. […] Data collection and analysis were performed using Tiamo software.
# The water content of samples of Form 1 (batch ref. LS19-0004-3-8002), Form 3 prepared by minimally-agitated drying ([…]; batch ref. 491-PAL-18) and Form 3 prepared by continuously-agitated filter drying (Example 5B trial 5; batch ref. 00173-005) was analysed by KF at the start of the stability study (initial) and after 2, 4 and 8 weeks storage in 60 ml Duma® bottles fitted with 45 mm Duma® caps (without desiccant) at 25° C./60% RH—see Table 16;
# (§1) In a separate study, samples of Form 3 (Example 5.3; batch ref. 491-PAL-18) having an initial water content by KF of 2.3% w/w were tested for water content at various time points after storage double bagged in a HDPE bottle under various conditions as shown in Table 17.
# [4] = XRPD physical form after storage; details: days 7, 9 and 29 after removal from drying oven, ambient conditions
# Procedure: XRPD diffractograms were collected on a PANalytical Empyrean diffractometer using Cu Kα radiation (45 kV, 40 mA) in transmission geometry. A 0.5° sat, 4 mm mask and 0.04 rad Soller slits with a focusing mirror were used on the incident beam. A PIXcel^3D detector, placed on the diffracted beam, was fitted with a receiving slit and 0.04 rad Soller slits. The software used for data collection was X'Pert Data Collector using X'Pert Operator Interface. The data were analysed and presented using Diffrac Plus EVA or HighScore Plus.
# After removal from the vacuum oven (day 0), Example 3 was reanalysed by XRPD in reflection mode on days 7, 9 and 29.
# as §1
# [5] = TGA mass loss (water content) after exposure to ambient conditions
# Procedure: TGA data were collected on a TA Instruments Discovery TGA, equipped with a 25-position auto-sampler. Typically, 5-10 mg of each sample was loaded onto a pre-tared aluminium DSC pan and heated at 10° C./min from ambient temperature to 350° C. A nitrogen purge at 25 ml/min was maintained over the sample. The instrument control software was TRIOS and the data were analysed using TRIOS or Universal Analysis.
# Example 3 was also analysed by TGA at days 1, 3, 7, 9, 15 and 20 after removal from the vacuum oven and exposure to ambient conditions, as described in Table 6.
# Compression testing = details: 20 kg, 50 kg and 100 kg for 2 minutes each
# Procedure: 15 mg samples of Example 3 (Form 3) were compressed into 3 mm recess discs under 20 kg, 50 kg and 100 kg of pressure for 2 minutes each.
# [6] = 15 mins (simulated gastric), 0.1 M HCl, Form 3 = Example 5.4.1
# [7] = 30 mins (simulated gastric), 0.1 M HCl
# [8] = 60 mins (simulated intestinal), 1:1 0.1 M HCl and FaSSIF
# [9] = 180 mins (simulated intestinal), 1:1 0.1 M HCl and FaSSIF
compound,measurement,setting,value
C[S+]([O-])CCCCN=C=S.OCC1OC2OC3C(CO)OC(OC4C(CO)OC(OC5C(CO)OC(OC6C(CO)OC(OC7C(CO)OC(OC1C(O)C2O)C(O)C7O)C(O)C6O)C(O)C5O)C(O)C4O)C(O)C3O (stereo not shown) [Form 1],solid state form (VH-XRPD),"[1]; Form 1 sample, RH reduced from 40% to 30% RH, 25° C.",intermediate phase
same,solid state form (VH-XRPD),"[1]; Form 1 sample, RH reduced to 20% RH, 25° C.",Form 3
same,solid state form (VH-XRPD),"[1]; Form 1 sample, after drying to 10% RH, RH increased to 70% RH",intermediate phase
same,solid state form (VH-XRPD),"[1]; Form 1 sample, after drying to 10% RH, RH increased to 80% RH",Form 1
same,solid state form (VH-XRPD),"[1]; Form 1 sample, after drying to 10% RH, RH increased to 90% RH",Form 2
same,XRPD analysis of residual solids,[2]; 15 mins (simulated gastric),Form 1
same,"Kinetic solubility, Mean conc",[2]; [6],approximately 300 mg/ml
same,"Kinetic solubility, Mean conc","[2]; 15 mins (simulated gastric), 0.1 M HCl, Form 3 = Example 5.4.1, listed as 1",319 mg/mL
same,XRPD analysis of residual solids,[2]; 30 mins (simulated gastric),Form 1
same,"Kinetic solubility, Mean conc",[2]; [7],318 mg/mL
same,XRPD analysis of residual solids,[2]; 60 mins (simulated intestinal),Form 1
same,"Kinetic solubility, Mean conc",[2]; [8],approximately 180 mg/ml
same,"Kinetic solubility, Mean conc","[2]; 60 mins (simulated intestinal), 1:1 0.1 M HCl and FaSSIF, listed as 1",191 mg/mL
same,XRPD analysis of residual solids,[2]; 180 mins (simulated intestinal),Form 1
same,"Kinetic solubility, Mean conc",[2]; [9],approximately 180 mg/ml
same,"Kinetic solubility, Mean conc","[2]; 180 mins (simulated intestinal), 1:1 0.1 M HCl and FaSSIF, listed as 1",180 mg/mL
same,KF water content,"[3]; 2 weeks, 25° C./60% RH",8.4 % w/w
same,KF water content,"[3]; 4 weeks, 25° C./60% RH",6.5 % w/w
same,KF water content,"[3]; 8 weeks, 25° C./60% RH",11.1 % w/w
same,KF water content,"[3]; Initial, 25° C./60% RH study",8.6 % w/w
C[S+]([O-])CCCCN=C=S.OC[C@H]1O[C@@H]2O[C@H]3[C@H](O)[C@@H](O)[C@@H](O[C@H]4[C@H](O)[C@@H](O)[C@@H](O[C@H]5[C@H](O)[C@@H](O)[C@@H](O[C@H]6[C@H](O)[C@@H](O)[C@@H](O[C@H]7[C@H](O)[C@@H](O)[C@@H](O[C@H]1[C@H](O)[C@H]2O)O[C@@H]7CO)O[C@@H]6CO)O[C@@H]5CO)O[C@@H]4CO)O[C@@H]3CO [Form 3],RH at which the form starts to convert to a different form,"[1]; 25° C., increasing RH",70%
same,solid state form (VH-XRPD),"[1]; Form 3 sample, RH decreased to 70% RH, persisted to 40% RH",Form 2 converted to Form 1
same,solid state form (VH-XRPD),"[1]; Form 3 sample, RH raised from 40% up to 60%, 25° C.",Form 3 is maintained
same,solid state form (VH-XRPD),"[1]; Form 3 sample, RH raised to 70%",intermediate phase
same,solid state form (VH-XRPD),"[1]; Form 3 sample, RH raised to 80%",Form 2
same,solid state form (VH-XRPD),"[1]; Form 3 sample, after dropping from 90% to 80% RH",Form 2 returned as a highly crystalline material
same,time sample was stable as Form 2 (VH-XRPD),"[1]; Form 3 sample, at 80% RH",8 h
same,time Form 2 existed before the sample deliquesced (VH-XRPD),"[1]; Form 3 sample, at 90% RH",2 h
same,solid state form by XRPD (reflection mode),[4],still existed as Form 3
same,XRPD analysis of residual solids,[2]; 15 mins (simulated gastric),Form 1
same,"Kinetic solubility, Mean conc",[2]; [6],approximately 300 mg/ml
same,"Kinetic solubility, Mean conc","[2]; 15 mins (simulated gastric), 0.1 M HCl, Form 3 = Example 5.4.1, listed as 3",298 mg/mL
same,XRPD analysis of residual solids,[2]; 30 mins (simulated gastric),Form 1
same,"Kinetic solubility, Mean conc",[2]; [7],298 mg/mL
same,"Kinetic solubility, Mean conc",[2]; [8],approximately 180 mg/ml
same,"Kinetic solubility, Mean conc","[2]; 60 mins (simulated intestinal), 1:1 0.1 M HCl and FaSSIF, listed as 3",171 mg/mL
same,"Kinetic solubility, Mean conc",[2]; [9],approximately 180 mg/ml
same,"Kinetic solubility, Mean conc","[2]; 180 mins (simulated intestinal), 1:1 0.1 M HCl and FaSSIF, listed as 3",157 mg/mL
same,TGA mass loss,"[5]; 1 day exposed to ambient conditions, average of two readings",4.0* % wt
same,TGA mass loss,[5]; 3 days exposed to ambient conditions,5.1 % wt
same,TGA mass loss,[5]; 7 days exposed to ambient conditions,5.7 % wt
same,TGA mass loss,[5]; 9 days exposed to ambient conditions,6.0 % wt
same,TGA mass loss,[5]; 15 days exposed to ambient conditions,6.4 % wt
same,TGA mass loss,[5]; 20 days exposed to ambient conditions,6.2 % wt
same,stabilised water content,[5]; after gradual absorption of atmospheric moisture,approximately 6 % wt
same,water molecules per 1:1 sulforaphane:α-cyclodextrin complex,[5]; at stabilised water content,3.5 to 4
same,water content on extended exposure to high humidity,[3]; up to 6 months,does not increase significantly above about 5-6% w/w
same,decomposition by 1H-NMR after compression,Compression testing,No decomposition
same,form by XRPD after compression,Compression testing,still existed as Form 3
